From US12071411B2, “Inhibitors of HIF-2α and methods of use thereof” (ARCUS BIOSCIENCES, INC., priority 2021, dated 2024)

Assays:
HIF-2α [1] = molecular target: T1, HIF-2α (Homo sapiens, UniProt Q99814); experiment: HIF-2α Luciferase Reporter Assay (serum free) in HIF-Luc-786-0 cells; assay type: cell-based; details: Opti-MEM, 786-0 reporter cells, 20 hours incubation
Experimental: (§1) Generation of HIF-2α Luciferase 786-0 Cell Line:
(§2) Stable cell lines were generated by transducing 786-0 cells (ATCC, CRL-1932) with Cignal Lenti HIF Luc Reporter lentivirus (CLS-007L, Qiagen) according to the manufacturer's guidelines. In brief, 0.3×10^6 786-0 cells were transduced with lentivirus at a multiplicity of infection (MOI) of 25 for 24 hours. After transduction, cells were replenished with fresh RPMI 1640 Medium (Cat. No. 11875085, Thermo Fisher) supplemented with 10% FBS (Cat. No. A3160502, Gibco), 2 mM GlutaMAX™ (Cat. No. 35050-061, Invitrogen) and 100 units of penicillin and 100 μg of streptomycin/mL (Cat. No 15070063, Thermo Fisher) for another 24 hours. Antibiotic selection was performed in cell media containing 4 μg/mL of puromycin. After 7 days of antibiotic selection, stable pools of surviving cells were expanded and used in a luciferase reporter assay.
HIF-2α Luciferase Reporter Assay (Serum Free):
On day one, 20 uL of HIF-Luc-786-0 cells in Opti-MEM™ (Cat. No. 31985088, Thermo Fisher) were seeded into each well of a 384 well white opaque plate (Corning 3570) and incubated at 37° C. and 5% CO2. Twenty microliters of 2× test compounds in Opti-MEM™ were added to cells after 4 hours of incubation. Final assay conditions comprised 20,000 cells per well in 1% DMSO with test compound concentrations ranging from 50 uM to 0 uM. After 20 hours incubation at 37° C. and 5% CO2, luciferase activity was determined using ONE-Glo™ Luciferase Assay Reagent (E6110, Promega) following the manufacture's recommended procedure. Briefly, 40 uL of ONE-Glo™ luciferase reagents were added to each well and luciferase signals were measured using an Envision 2102 Multilabel Reader. Percentage maximum activity in each test well was calculated based on DMSO (maximum activity) and no cell control wells (baseline activity). The IC50 values of the test compounds were determined from compound dose response curves fitted using a standard four parameter fit equation.

HIF-2α [2] = molecular target: T1, HIF-2α; experiment: HIF-2α Luciferase Reporter Assay (serum), HRE-luciferase 786-0 cells in 100% human serum; assay type: cell-based; details: for IC50: 100% human serum, 786-0 reporter cells, overnight incubation, read-out: Serum Potency; for Serum Shift (approximate): ratio of IC50 in 100% serum to IC50 in serum free conditions
Experimental: as §1, §2
HIF-2α Luciferase Reporter Assay (Serum):
An HRE-luciferase stable reporter 786-0 cell line was maintained in active culture using RPMI 1640 (GIBCO) media supplemented with 1% penicillin-streptomycin, 1% GlutaMAX™, 10% FBS-One Shot (GIBCO) and 4 ug/ml of puromycin (Invitrogen). On the day of the assay, cells were harvested using StemPro™ Accutase™ cell dissociation reagent (GIBCO) and resuspended at 1.5 million cells per milliliter in Opti-MEM™ (GIBCO). 20 ul/well of the resuspended cells were dispensed into a 384 white tissue culture-treated microplate (Corning) and allowed to incubate at 37° C., 5% CO2 for 3 hours. Compounds were prepared by dispensing 0.8 ul of compound in 100% DMSO into a Greiner plate containing 40 ul/well of 100% human serum (Bioreclamation IVT). After 3 hours, media was removed via centrifugation at 500 RPM for 30 seconds and 30 ul/well of compound diluted in human serum was added. The plate was incubated overnight at 37° C., 5% CO2. The following day, ONE-Glo™ was prepared per vendors instructions. The cell plate was removed from the incubator and the human serum was removed from the plate using centrifugation at 500 RPM for 30 seconds. Following the removal of human serum, 40 ul/well of room temperature Opti-MEM™ was added to the plate and allowed to equilibrate to room temperature for 2 hours. 40 ul/well of ONE-Glo™ reagent was added and allowed to incubate for 10 minutes before reading the luminescence signal on the Envision (PerkinElmer). Data was analyzed using 4-parameter logistic equation to generate IC50.

T1 sequence (Q99814 whole entry): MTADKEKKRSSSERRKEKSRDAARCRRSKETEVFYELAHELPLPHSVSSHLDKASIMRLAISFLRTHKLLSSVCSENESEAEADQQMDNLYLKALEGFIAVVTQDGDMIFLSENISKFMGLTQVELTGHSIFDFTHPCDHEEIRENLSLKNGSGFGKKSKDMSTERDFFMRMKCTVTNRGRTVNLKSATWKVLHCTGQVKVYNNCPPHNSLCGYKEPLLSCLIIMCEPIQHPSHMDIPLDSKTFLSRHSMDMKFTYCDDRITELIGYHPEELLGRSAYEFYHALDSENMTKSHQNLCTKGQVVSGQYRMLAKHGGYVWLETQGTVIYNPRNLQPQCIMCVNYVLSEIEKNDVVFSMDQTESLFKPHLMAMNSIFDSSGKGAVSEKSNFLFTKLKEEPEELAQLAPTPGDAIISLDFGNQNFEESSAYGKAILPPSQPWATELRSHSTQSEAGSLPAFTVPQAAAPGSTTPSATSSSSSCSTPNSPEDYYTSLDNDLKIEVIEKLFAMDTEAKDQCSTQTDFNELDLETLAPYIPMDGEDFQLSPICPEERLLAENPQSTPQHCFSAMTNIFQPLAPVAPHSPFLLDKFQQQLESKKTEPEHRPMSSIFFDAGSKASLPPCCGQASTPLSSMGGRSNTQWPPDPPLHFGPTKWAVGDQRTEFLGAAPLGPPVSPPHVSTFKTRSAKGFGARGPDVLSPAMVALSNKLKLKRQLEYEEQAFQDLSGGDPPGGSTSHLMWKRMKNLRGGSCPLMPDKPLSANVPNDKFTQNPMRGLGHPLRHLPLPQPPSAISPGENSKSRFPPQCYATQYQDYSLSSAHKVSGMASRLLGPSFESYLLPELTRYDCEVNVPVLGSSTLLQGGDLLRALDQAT

Compound | IC50 (HIF-2α [1]) [nM] | IC50 (HIF-2α [2]) [nM] | Serum Shift (approximate) (HIF-2α [2])
O[C@H]1c2c(C(F)(F)F)nn(C3CCC(F)(F)C3)c2CC1(F)F (mixture of isomers) [Example 54, (4S)-1-(3,3-difluorocyclopentyl)-5,5-difluoro-3-(trifluoromethyl)-4,6-dihydrocyclopenta[c]pyrazol-4-ol] | 100 to 1000 | > 1000 | 5
O[C@H]1c2c(C(F)(F)F)nn([C@H]3C[C@@H](F)[C@@H](F)[C@@H](F)C3)c2CC1(F)F (mixture of isomers) [Example 88, (4S)-5,5-difluoro-1-[(3R,5S)-3,4,5-trifluorocyclohexyl]-3-(trifluoromethyl)-4,6-dihydrocyclopenta[c]pyrazol-4-ol] | < 100 | 100 to 1000 | 6
O[C@H]1c2c(C(F)(F)F)nn([C@H]3CCC[C@@H](F)C3)c2CC1(F)F (racemic) [90 DIAST-1, (4S)-5,5-difluoro-1-[(rel-1S,3R)-3-fluorocyclohexyl]-3-(trifluoromethyl)-4,6-dihydrocyclopenta[c]pyrazol-4-ol] | < 100 | 100 to 1000 | 6
O[C@H]1c2c(C(F)(F)F)nn([C@H]3CC[C@@H](F)[C@@H](F)C3)c2CC1(F)F (racemic) [91 DIAST-2, (4S)-1-[(rel-1S,3S,4R)-3,4-difluorocyclohexyl]-5,5-difluoro-3-(trifluoromethyl)-4,6-dihydrocyclopenta[c]pyrazol-4-ol] | < 100 | > 1000 | 9
CO[C@H]1CCCC[C@H]1n1nc(C(F)(F)F)c2c1CC(F)(F)[C@H]2O (racemic) [Example 69, (4S)-5,5-difluoro-1-[(1R,2S)-2-methoxycyclohexyl]-3-(trifluoromethyl)-4,6-dihydrocyclopenta[c]pyrazol-4-ol and (4S)-5,5-difluoro-1-[(1S,2R)-2-methoxycyclohexyl]-3-(trifluoromethyl)-4,6-dihydrocyclopenta[c]pyrazol-4-ol] | > 1000 | – | –
CO[C@H](CCn1nc(S(C)(=O)=O)c2c1CC(F)(F)[C@H]2O)C(F)(F)F (racemic) [Example 107, (4S)-5,5-difluoro-3-methylsulfonyl-1-[(3R)-4,4,4-trifluoro-3-methoxybutyl]-4,6-dihydrocyclopenta[c]pyrazol-4-ol and (4S)-5,5-difluoro-3-methylsulfonyl-1-[(3S)-4,4,4-trifluoro-3-methoxybutyl]-4,6-dihydrocyclopenta[c]pyrazol-4-ol] | < 100 | – | –
O[C@H]1c2c(C(F)(F)F)nn(C3CCC[C@H](OC(F)F)C3)c2CC1(F)F (mixture of isomers) [Example 108, (4S)-1-[(1S,3S)-3-(difluoromethoxy)cyclohexyl]-5,5-difluoro-3-(trifluoromethyl)-1H,4H,5H,6H-cyclopenta[c]pyrazol-4-ol and (4S)-1-[(1R,3R)-3-(difluoromethoxy)cyclohexyl]-5,5-difluoro-3-(trifluoromethyl)-1H,4H,5H,6H-cyclopenta[c]pyrazol-4-ol] | < 100 | > 1000 | 19
CO[C@H]1C[C@@H](n2nc(C(F)(F)F)c3c2CC(F)(F)[C@H]3O)CCC1(F)F (racemic) [Example 109, (4S)-1-[(1S,3S)-4,4-difluoro-3-methoxycyclohexyl]-5,5-difluoro-3-(trifluoromethyl)-1H,4H,5H,6H-cyclopenta[c]pyrazol-4-ol and (4S)-1-[(1R,3R)-4,4-difluoro-3-methoxycyclohexyl]-5,5-difluoro-3-(trifluoromethyl)-1H,4H,5H,6H-cyclopenta[c]pyrazol-4-ol] | 100 to 1000 | 100 to 1000 | 4
O[C@H]1c2c(C(F)(F)F)nn(C[C@@H](F)C3CC3)c2CCC1(F)F (single isomer, unassigned) [26/27 DIAST-1] | > 1000 | – | –
O[C@H]1c2c(C(F)(F)F)nn([C@@H]3CCO[C@@H](C(F)(F)F)C3)c2CC1(F)F (single isomer, unassigned) [92/93 DIAST-1] | < 100 | – | –
O[C@H]1c2c(C(F)(F)F)nn([C@H]3CC[C@H](F)C[C@@H]3F)c2CC1(F)F (single isomer, unassigned) [97/98 DIAST-2] | < 100 | – | –
O[C@H]1c2c(C(F)(F)F)nn([C@@H]3CCO[C@H](C(F)(F)F)C3)c2[C@@H](F)[C@H]1F (single isomer, unassigned) [150/151 DIAST-2] | > 1000 | – | –
O[C@H]1c2c(C(F)(F)F)nn([C@H]3CC[C@H](F)[C@H](F)C3)c2[C@H](F)C1(F)F (single isomer, unassigned) [Example 155] | > 1000 | – | –
O[C@H]1c2c(C(F)(F)F)nn(Cc3cc(C(F)(F)F)no3)c2CCC1(F)F [Example 4, (4S)-5,5-difluoro-3-(trifluoromethyl)-1-[[3-(trifluoromethyl)-1,2-oxazol-5-yl]methyl]-6,7-dihydro-4H-indazol-4-ol] | > 1000 | – | –
COCC(C)CCn1nc(C(F)(F)F)c2c1CCC(F)(F)[C@H]2O (stereo partly drawn) [Example 6, (4S)-5,5-difluoro-1-(4-methoxy-3-methylbutyl)-3-(trifluoromethyl)-6,7-dihydro-4H-indazol-4-ol] | > 1000 | – | –
C[C@]1(OC(F)F)C[C@@H](Cn2nc(C(F)(F)F)c3c2CCC(F)(F)[C@H]3O)C1 [Example 19, (4S)-1-[[3-(difluoromethoxy)-3-methylcyclobutyl]methyl]-5,5-difluoro-3-(trifluoromethyl)-6,7-dihydro-4H-indazol-4-ol] | > 1000 | – | –
O[C@H]1c2c(C(F)(F)F)nn(CC(F)(F)C3CC3)c2CCC1(F)F [Example 28, (4S)-1-(2-cyclopropyl-2,2-difluoroethyl)-5,5-difluoro-3-(trifluoromethyl)-4,5,6,7-tetrahydro-1H-indazol-4-ol] | > 1000 | – | –
CCC(F)(F)Cn1nc(C(F)(F)F)c2c1CCC(F)(F)[C@H]2O [Example 29, (4S)-1-(2,2-difluorobutyl)-5,5-difluoro-3-(trifluoromethyl)-6,7-dihydro-4H-indazol-4-ol] | > 1000 | – | –
O[C@H]1c2c(C(F)(F)F)nn(CCC3CCCO3)c2CCC1(F)F (stereo partly drawn) [Example 34, (4S)-5,5-difluoro-1-[2-(oxolan-2-yl)ethyl]-3-(trifluoromethyl)-6,7-dihydro-4H-indazol-4-ol] | > 1000 | – | –
O[C@H]1c2c(C(F)(F)F)nn(C3CCCCC3)c2CCC1(F)F [Example 35, (4S)-1-cyclohexyl-5,5-difluoro-3-(trifluoromethyl)-6,7-dihydro-4H-indazol-4-ol] | > 1000 | – | –
F[C@H]1c2c(C(F)(F)F)nn(CCCC(F)(F)F)c2CCC1(F)F [Example 48, (4S)-4,5,5-trifluoro-1-(4,4,4-trifluorobutyl)-3-(trifluoromethyl)-6,7-dihydro-4H-indazole] | > 1000 | – | –
O[C@H]1c2c(C(F)(F)F)nn(-c3ccc(C(F)(F)F)nc3)c2CC1(F)F [Example 68, (4S)-5,5-difluoro-3-(trifluoromethyl)-1-[6-(trifluoromethyl)pyridin-3-yl]-4,6-dihydrocyclopenta[c]pyrazol-4-ol] | < 100 | – | –
O[C@H]1c2c(C(F)(F)F)nn([C@H]3C[C@@H](COC(F)F)C3)c2CCC1(F)F [Example 105, (4S)-1-[3-(difluoromethoxymethyl)cyclobutyl]-5,5-difluoro-3-(trifluoromethyl)-6,7-dihydro-4H-indazol-4-ol] | > 1000 | – | –
